Assay: Plasma titer after 4 weeks of treatment in post-MI mice
Assay type: in vivo, mouse
Details: after 4 weeks of treatment (week 6), FIG. 6
Source text: Myocardial infarction was induced in 10-12 week C57B/6 wild-type mice and after 2 weeks echo cardiograms were used to assess the MI severity in each mouse. Mice were randomized for treatment based on similarity and severity of the induced infarct. The mice were started with either vibegron or vehicle (1-3 doses) administered by continuous infusion using 2 week minipumps (Azlet Corp.) that were filled with the appropriate dose and implanted subcutaneously on the back of each animal in the region of the scapula. The minipumps were replaced with new minipumps in the same location at the 2 week time point and dosed for 4 weeks in total. Cardiac function was assessed by echocardiography (Echo) at 0, 2, 4, and 6 weeks. Some mice were subjected to terminal catheterization to measure hemodynamic pressures and adrenergic responsiveness. At the end of the 4 week treatment period (i.e., 6 weeks after MI was induced), cardiac function was measured, mice were sacrificed for histology of the heart, and terminal blood was collected to confirm the serum concentration of vibegron.
• 1. Day 0 (after 1-2 weeks acclimation)—pre-surgery Echo • 2. Perform LAD Ligation (MI) or Sham procedure • 3. Day 14—Echo and randomly assign groups • 4. Day 14—begin administration of vehicle and drug for 4 weeks • 5. Day 28—Echo (operator blinded to groups)—change pumps for another 2 week dosing • 6. […]

O=C(Nc1ccc(C[C@@H]2CC[C@H]([C@H](O)c3ccccc3)N2)cc1)[C@@H]1CCc2nccc(=O)n21 [Vibegron, (6S)—N-[4-[[(2S,5R)-5-[(R)-hydroxy(phenyl)methyl]pyrrolidin-2-yl]methyl]phenyl]-4-oxo-7,8-dihydro-6H-pyrrolo[1,2-a]pyrimidine-6-carboxamide]
Vibegron plasma titer: consistent with the dosing

From patent US20260224577A1, “METHODS OF TREATING HEART FAILURE WITH VIBEGRON” (SUMITOMO PHARMA CO., LTD., priority 2021, published 2026)
